Measured values as given in US20150004110A1, “NOVEL ANTI-AGING AND DEPIGMENTING COSMETIC COMPOSITIONS” (DIVERCHIM, priority 2011, published 2015).

Tested on: skin explants (abdominoplasty)
Assay: Histological assessment of the general morphology of skin explants maintained in survival
Type: cell-based, human
Conditions: 2 μg/mL in DMSO, after 9 days of survival
Experimental: 1. Preparation of the explants • During abdominoplasty of a person, 45 skin explants were prepared. The explants were put in BEM medium (BIO-EC's Explants Medium) for survival at 37° C. in humid atmosphere, enriched with 5% CO2.
2. Application of the products • The solutions are prepared in DMSO from pure products, in order to obtain final concentrations of […] by incorporating an identical volume of 10 μl in each well and for each treatment. The treatment was carried out in the survival medium on days 0, 1, 2, 5 and 7.
3. Taking samples • On D0, the 3 explants of batch TO were taken and each explant was cut in two. One part was fixed in buffered formol for observation of the general morphology. The other was frozen and stored at −80° C. • On D5 and D9, 3 explants from each batch were taken and treated in the same way.
4. […]
5. Microscopic observations • The microscopic observations were carried out by light microscopy and fluorescence microscopy, using a Orthoplan-type Leica microscope, with ×25 objective. The images were recorded with a Sony DXC 390P tri CCD camera and stored using the Leica IM1000 data archiving software. • The general morphology was observed on sections in paraffin after staining with Masson trichrome, Goldner variant according to procedure MO-H-157. […]

For `C[C@]12CC[C@H](O)CC1=CC[C@@H]1[C@@H]2CC[C@]2(C)C(=O)CC[C@@H]12` [(+)-dehydroisoandrosterone, reference compound], the “General morphology: epidermal structure and papillary dermis” value was “does not alter the epidermal structure or the papillary dermis”.
